Source: patent US20050239774A1 (priority 2002, published 2005)

Target: α7 nAChR subtype (Rattus norvegicus, UniProt Q05941)
Assay type: binding
Conditions: read-out: KD of the radioligand (saturation curve, one site model)

α7 nAChR subtype, sequence (Q05941 23-502 limits assumed): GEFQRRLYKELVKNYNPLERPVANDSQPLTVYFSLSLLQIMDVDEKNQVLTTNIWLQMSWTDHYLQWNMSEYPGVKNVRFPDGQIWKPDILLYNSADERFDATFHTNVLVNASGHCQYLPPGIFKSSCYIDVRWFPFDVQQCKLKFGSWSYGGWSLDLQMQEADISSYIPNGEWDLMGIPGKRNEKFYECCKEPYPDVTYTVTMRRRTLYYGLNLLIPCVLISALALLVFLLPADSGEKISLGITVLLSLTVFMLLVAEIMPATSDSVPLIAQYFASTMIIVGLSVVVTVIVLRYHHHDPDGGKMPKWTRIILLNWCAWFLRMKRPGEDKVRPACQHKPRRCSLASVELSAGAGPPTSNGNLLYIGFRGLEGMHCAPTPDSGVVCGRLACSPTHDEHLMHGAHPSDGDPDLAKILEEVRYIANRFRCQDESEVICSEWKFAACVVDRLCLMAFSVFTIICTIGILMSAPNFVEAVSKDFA

^125I-α-Bungarotoxin [^125I-α-BTX]
Kd: 1.67 nM
